Experimental data from patent publication US11242351B2, “Tricyclic inhibitors of the BCL6 BTB domain protein-protein interaction and uses thereof” (priority 2017, dated 2022).
Read-outs that look alike come from different tables or passages of the source.

How the values were obtained:
[1] = system: BCL6 reporter construct in SuDHL4-3×BCL6-TK-Luc cells; experiment: Cell-based luciferase assay (BCL6 reporter); details: 48 h, read-out: Luc IC50
Summary of the method: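 SuDHL4 cells stably carrying a 3×BCL6-site TK-promoter firefly luciferase reporter, 15,000 cells/well, dosed over 10 concentrations (top 10 μM) and cultured two days at 37° C, 5% CO2. Luciferase luminescence read after room-temperature equilibration with neolite reagent.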

Karpas422 cells = experiment: Tumor cell growth inhibition assay; type: cell-based; details: Homo sapiens, KARPAS-422, 144 h, read-out: GI Karpas EC50
Summary of the method: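 Karpas422 cells were dosed over a 10-point concentration range (top 5 μM) and grown 6 days at 37 °C, 5% CO2, in Alpha-MEM with 10% FBS. Viability was read as ATPlite luminescence.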

[2] = molecular target: BCL6 BTB domain (biotin-thrombin-BCL6 amino acids 1-129) (Homo sapiens (Human), UniProt P41182); experiment: Surface Plasmon Resonance (SPR) assay; type: binding; details: Biacore T200, single cycle kinetic analysis
Procedure: Surface Plasmon Resonance (SPR) Assay
SPR studies were performed using a Biacore™ T200 instrument (GE Health Sciences Inc.). […] The Biacore flow rate was set at 100 μl/min. […] Curve fitting and KD calculations were performed with the Biacore T200 Evaluation software (GE Health Sciences Inc).

[3] = SuDHL4-3×BCL6-TK-Luc cells, two days
[4] = Karpas422 cells, six days, ATPlite

SMILES	IC50 [1, 3] [nM]	EC50 (Karpas422 cells; [4]) [nM]	Kd [2] [nM]	IC50 [1] [nM]	EC50 (Karpas422 cells) [nM]
C[C@H]1COCCN1c1cc(NC(=O)Cn2cc(-c3cc(C(N)=O)c(O)c(F)c3F)c3c(=O)n4c(nc32)CC(C)(C)C4)c(Cl)c(F)n1 [I-58, (S)-5-(1-(2-((3-chloro-2-fluoro-6-(3-methyl-morpholino)pyridin-4-yl)amino)-2-oxoethyl)-7,7-dimethyl-4-oxo-4,6,7,8-tetrahydro-1H-dipyrrolo[1,2-a:2′,3′-d]pyrimidin-3-yl)-3,4-difluoro-2-hydroxy-benzamide]	190	96.2	28.7	–	–
C[C@H]1CNCCN1c1cc(NC(=O)Cn2cc(-c3cc(F)c(O)c(C(N)=O)c3)c3c(=O)n4c(nc32)CCC4)c(Cl)c(F)n1 [I-93, (S)-5-(1-(2-((3-chloro-2-fluoro-6-(2-methyl-piperazin-1-yl)pyridin-4-yl)amino)-2-oxoethyl)-4-oxo-4,6,7,8-tetrahydro-1H-dipyrrolo[1,2-a:2′,3′-d]pyrimidin-3-yl)-3-fluoro-2-hydroxy-benzamide]	140	83.9	1.79	–	–
C[C@H]1CN(C)C[C@H](C)N1c1cc(NC(=O)Cn2cc(-c3cc(C(N)=O)c(O)c(F)c3F)c3c(=O)n4c(nc32)CCC4)c(Cl)c(F)n1 [I-73, 5-(1-(2-((3-chloro-2-fluoro-6-((2S,6S)-2,4,6-trimethyl-piperazin-1-yl)pyridin-4-yl)amino)-2-oxo-ethyl)-4-oxo-4,6,7,8-tetrahydro-1H-dipyrrolo [1,2-a:2′,3′-d]pyrimidin-3-yl)-3,4-difluoro-2-hydroxybenzamide]	–	–	58.6	1050	648
C[C@H]1CN(C)CCN1c1cc(NC(=O)Cn2cc(-c3cc(F)c(O)c(C(N)=O)c3)c3c(=O)n4c(nc32)CC(C)(C)C4)c(Cl)c(F)n1 [I-79, (S)-5-(1-(2-((3-chloro-6-(2,4-dimethyl-piperazin-1-yl)-2-fluoropyridin-4-yl)amino)-2-oxoethyl)-7,7-dimethyl-4-oxo-4,6,7,8-tetrahydro-1H-dipyrrolo[1,2-a:2′,3′-d]pyrimidin-3-yl)-3-fluoro-2-hydroxy-benzamide]	35.2	39.8	2.79	–	–
CC1Cc2nc3c(c(-c4cc(C(N)=O)c(O)c(F)c4F)cn3CC(=O)Nc3cc(N4CCOC[C@@H]4C)nc(F)c3Cl)c(=O)n2C1 (stereo partly drawn) [I-64, 5-(1-(2-((3-chloro-2-fluoro-6-((S)-3-methylmorpholino)pyridin-4-yl)amino)-2-oxoethyl)-7-methyl-4-oxo-4,6,7,8-tetrahydro-1H-dipyrrolo [1,2-a:2′,3′-d]pyrimidin-3-yl)-3,4-difluoro-2-hydroxybenzamide]	380	174	27.4	–	–
COc1c(O)c(C(N)=O)cc(-c2cn(CC(=O)Nc3cc(N4CCN(C)C[C@@H]4C)ncc3Cl)c3nc4n(c(=O)c23)CCC4)c1F [I-17, (S)-5-(1-(2-((5-chloro-2-(2,4-dimethyl-piperazin-1-yl)pyridin-4-yl)amino)-2-oxoethyl)-4-oxo-4,6,7,8-tetrahydro-1H-dipyrrolo[1,2-a:2′,3′-d]pyrimidin-3-yl)-4-fluoro-2-hydroxy-3-methoxybenzamide]	850	985	49.6	–	–
COc1c(-c2cn(CC(=O)Nc3cc(N4CCN(C)C[C@@H]4C)nc(F)c3Cl)c3nc4n(c(=O)c23)CCC4)cc(C(N)=O)c(O)c1OC [I-68, (S)-5-(1-(2-((3-chloro-6-(2,4-dimethylpiperazin-1-yl)-2-fluoro-pyridin-4-yl)amino)-2-oxoethyl)-4-oxo-4,6,7,8-tetrahydro-1H-dipyrrolo[1,2-a:2′,3′-d]pyrimidin-3-yl)-2-hydroxy-3,4-dimethoxy-benzamide]	–	–	31.3	3420	1620
C[C@H]1CN(CCC(F)(F)F)CCN1c1cc(NC(=O)Cn2cc(-c3cc(C(N)=O)c(O)c(F)c3F)c3c(=O)n4c(nc32)CCC4)c(Cl)cn1 [I-35, (S)-5-(1-(2-((5-chloro-2-(2-methyl-4-(3,3,3-trifluoropropyl)piperazin-1-yl)pyridin-4-yl)amino)-2-oxoethyl)-4-oxo-4,6,7,8-tetrahydro-1H-dipyrrolo[1,2-a:2′,3′-d]pyrimidin-3-yl)-3,4-difluoro-2-hydroxy-benzamide]	237	194	24.3	–	–
CN1CCN(c2ccc(Cl)c(NC(=O)Cn3cc(-c4cc(C(N)=O)c(O)c(F)c4F)c4c(=O)n5c(nc43)CCC5)c2)CC1 [I-32, 5-(1-(2-((2-chloro-5-(4-methylpiperazin-1-yl)phenyl)amino)-2-oxo-ethyl)-4-oxo-4,6,7,8-tetrahydro-1H-dipyrrolo [1,2-a:2′,3′-d]pyrimidin-3-yl)-3,4-difluoro-2-hydroxybenzamide]	3580	1340	261	–	–
C[C@H]1COCCN1c1cc(NC(=O)Cn2cc(-c3cc(C(N)=O)c(O)c(F)c3F)c3c(=O)n4c(nc32)CCC4)c(Cl)c(F)n1 [I-5, (S)-5-(1-(2-((3-chloro-2-fluoro-6-(3-methyl-morpholino)pyridin-4-yl)amino)-2-oxoethyl)-4-oxo-4,6,7,8-tetrahydro-1H-dipyrrolo[1,2-a:2′,3′-d]pyrimidin-3-yl)-3,4-difluoro-2-hydroxy-benzamide]	–	–	11.7	167	124
C[C@H]1COCCN1c1cc(NC(=O)Cn2cc(-c3cc(C(N)=O)c(O)c(Cl)c3F)c3c(=O)n4c(nc32)CCC4)c(Cl)c(F)n1 [I-11, (S)-3-chloro-5-(1-(2-((3-chloro-2-fluoro-6-(3-methylmorpholino)pyridin-4-yl)amino)-2-oxoethyl)-4-oxo-4,6,7,8-tetrahydro-1H-dipyrrolo [1,2-a:2′,3′-d]pyrimidin-3-yl)-4-fluoro-2-hydroxybenzamide]	988	1900	112	–	–
NC(=O)c1cc(-c2cn(CC(=O)Nc3cc(N4CCCC4)nc(F)c3Cl)c3nc4n(c(=O)c23)CCC4)c(F)c(F)c1O [I-47, 5-(1-(2-((3-chloro-2-fluoro-6-(pyrrolidin-1-yl)pyridin-4-yl)amino)-2-oxoethyl)-4-oxo-4,6,7,8-tetrahydro-1H-dipyrrolo[1,2-a:2′,3′-d]pyrimidin-3-yl)-3,4-difluoro-2-hydroxy-benzamide]	166	212	23.9	–	–
C[C@H]1CN(C)CCN1c1cc(NC(=O)Cn2cc(-c3cc(Cl)c(O)c(C(N)=O)c3)c3c(=O)n4c(nc32)CC(C)(C)C4)c(Cl)c(F)n1 [I-60, (S)-3-chloro-5-(1-(2-((3-chloro-6-(2,4-dimethylpiperazin-1-yl)-2-fluoropyridin-4-yl)amino)-2-oxoethyl)-7,7-dimethyl-4-oxo-4,6,7,8-tetrahydro-1H-dipyrrolo[1,2-a:2′,3′-d]pyrimidin-3-yl)-2-hydroxybenzamide]	–	–	13.4	186	97.2
C[C@H]1CN(CCC(F)(F)F)CCN1c1cc(NC(=O)Cn2cc(-c3cc(C(N)=O)c(O)c(F)c3F)c3c(=O)n4c(nc32)CCC4)c(Cl)c(F)n1 [I-40, (S)-5-(1-(2-((3-chloro-2-fluoro-6-(2-methyl-4-(3,3,3-trifluoropropyl)piperazin-1-yl)pyridin-4-yl)amino)-2-oxoethyl)-4-oxo-4,6,7,8-tetrahydro-1H-dipyrrolo[1,2-a:2′,3′-d]pyrimidin-3-yl)-3,4-difluoro-2-hydroxy-benzamide]	187	273	134	–	–
